Data as given in patent US20110039721A1, “METHOD FOR PREDICTION ABOUT CARCINOGENICITY OF SUBSTANCE IN RODENT” (Chemicals Evaluation and Research Institute, priority 2007, published 2011).

Experiments:
[1] = test system: mRNA expressed from the genes (A) to (D) in rat liver; test: Behavior of genes (mRNA expression level, oligo-DNA microarray) in rat liver after 28-day oral administration; format: in vivo; conditions: for Behavior of gene caused by administration of chemical substance, Gene No. 4846 / Behavior of gene caused by administration of chemical substance, Gene No. 2026 / Behavior of gene caused by administration of chemical substance, Gene No. 4218 / Behavior of gene caused by administration of chemical substance, Gene No. 6182 / Behavior of gene caused by administration of chemical substance, Gene No. 5600: gene group (A); for Behavior of gene caused by administration of chemical substance, Gene No. 4846: Unigene No. Rn.144554; for Behavior of gene caused by administration of chemical substance, Gene No. 2026 / Behavior of gene caused by administration of chemical substance, Gene No. 4218: Unigene No. Rn.167075; for Behavior of gene caused by administration of chemical substance, Gene No. 6182: Unigene No. Rn.5834; for Behavior of gene caused by administration of chemical substance, Gene No. 5600: Unigene No. Rn.9836; for Behavior of gene caused by administration of chemical substance, Gene No. 1494 / Behavior of gene caused by administration of chemical substance, Gene No. 2045 / Behavior of gene caused by administration of chemical substance, Gene No. 2203: gene group (B); for Behavior of gene caused by administration of chemical substance, Gene No. 1494: Unigene No. Rn.1430; for Behavior of gene caused by administration of chemical substance, Gene No. 2045: Unigene No. Rn.19329; for Behavior of gene caused by administration of chemical substance, Gene No. 2203: Unigene No. Rn.21240; for Behavior of gene caused by administration of chemical substance, Gene No. 533 / Behavior of gene caused by administration of chemical substance, Gene No. 725 / Behavior of gene caused by administration of chemical substance, Gene No. 1163 / Behavior of gene caused by administration of chemical substance, Gene No. 4973 / Behavior of gene caused by administration of chemical substance, Gene No. 4095 / Behavior of gene caused by administration of chemical substance, Gene No. 1334 / Behavior of gene caused by administration of chemical substance, Gene No. 6620 / Behavior of gene caused by administration of chemical substance, Gene No. 6303 / Behavior of gene caused by administration of chemical substance, Gene No. 5878 / Behavior of gene caused by administration of chemical substance, Gene No. 1131 / Behavior of gene caused by administration of chemical substance, Gene No. 1562 / Behavior of gene caused by administration of chemical substance, Gene No. 1741 / Behavior of gene caused by administration of chemical substance, Gene No. 893 / Behavior of gene caused by administration of chemical substance, Gene No. 6026 / Behavior of gene caused by administration of chemical substance, Gene No. 154 / Behavior of gene caused by administration of chemical substance, Gene No. 1993 / Behavior of gene caused by administration of chemical substance, Gene No. 813 / Behavior of gene caused by administration of chemical substance, Gene No. 2494 / Behavior of gene caused by administration of chemical substance, Gene No. 2546 / Behavior of gene caused by administration of chemical substance, Gene No. 3776 / Behavior of gene caused by administration of chemical substance, Gene No. 3929 / Behavior of gene caused by administration of chemical substance, Gene No. 1119 / Behavior of gene caused by administration of chemical substance, Gene No. 6742 / Behavior of gene caused by administration of chemical substance, Gene No. 5634: gene group (C); for Behavior of gene caused by administration of chemical substance, Gene No. 533: Unigene No. Rn.106184; for Behavior of gene caused by administration of chemical substance, Gene No. 725: Unigene No. Rn.108075; for Behavior of gene caused by administration of chemical substance, Gene No. 1163: Unigene No. Rn.11766; for Behavior of gene caused by administration of chemical substance, Gene No. 4973: Unigene No. Rn.118529; for Behavior of gene caused by administration of chemical substance, Gene No. 4095: Unigene No. Rn.119024; for Behavior of gene caused by administration of chemical substance, Gene No. 1334 / Behavior of gene caused by administration of chemical substance, Gene No. 6620: Unigene No. Rn.120914; for Behavior of gene caused by administration of chemical substance, Gene No. 6303: Unigene No. Rn.123063; for Behavior of gene caused by administration of chemical substance, Gene No. 5878: Unigene No. Rn.143213; for Behavior of gene caused by administration of chemical substance, Gene No. 1131: Unigene No. Rn.144946; for Behavior of gene caused by administration of chemical substance, Gene No. 1562: Unigene No. Rn.14744; for Behavior of gene caused by administration of chemical substance, Gene No. 1741: Unigene No. Rn.1647; for Behavior of gene caused by administration of chemical substance, Gene No. 893: Unigene No. Rn.164817; for Behavior of gene caused by administration of chemical substance, Gene No. 6026: Unigene No. Rn.167685; for Behavior of gene caused by administration of chemical substance, Gene No. 154: Unigene No. Rn.185941; for Behavior of gene caused by administration of chemical substance, Gene No. 1993: Unigene No. Rn.18728; for Behavior of gene caused by administration of chemical substance, Gene No. 813: Unigene No. Rn.201760; for Behavior of gene caused by administration of chemical substance, Gene No. 2494: Unigene No. Rn.23969; for Behavior of gene caused by administration of chemical substance, Gene No. 2546: Unigene No. Rn.24561; for Behavior of gene caused by administration of chemical substance, Gene No. 3776: Unigene No. Rn.43232; for Behavior of gene caused by administration of chemical substance, Gene No. 3929: Unigene No. Rn.4620; for Behavior of gene caused by administration of chemical substance, Gene No. 1119: Unigene No. Rn.9757; for Behavior of gene caused by administration of chemical substance, Gene No. 6742: Unigene No. Rn.9779; for Behavior of gene caused by administration of chemical substance, Gene No. 5634: Unigene No. Rn.9862; for Behavior of gene caused by administration of chemical substance, Gene No. 5726: gene group (D), Unigene No. Rn.9939
Procedure, shortened: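 Male F344 SPF rats, 5 weeks old, four per group, dosed by oral gavage once daily for 28 days with test chemical or matched-volume solvent. Liver total RNA profiled on oligo-DNA microarray. Change ≥1.5-fold or ≤1/1.5 versus vehicle counted as significant if its direction matched that seen with other carcinogens.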

liver = conditions: classification of the substance (Cr+/Cr−); cited from earlier work
rodent = conditions: classification of the substance (C+/C−); cited from earlier work
[2] = classification of the substance (M+/M−); cited from earlier work

CC/C(=C(/CC)c1ccc(O)cc1)c1ccc(O)cc1 [TS068, Diethylstilbestrol]
M−: Mutagenicity by Ames test [2]
−: Behavior of gene caused by administration of chemical substance, Gene No. 2026 ([1]; mRNA vs vehicle control group) | Behavior of gene caused by administration of chemical substance, Gene No. 1494 ([1]; mRNA vs vehicle control group) | Behavior of gene caused by administration of chemical substance, Gene No. 2045 ([1]; mRNA vs vehicle control group) | Behavior of gene caused by administration of chemical substance, Gene No. 2203 ([1]; mRNA vs vehicle control group) | Behavior of gene caused by administration of chemical substance, Gene No. 5726 ([1]; mRNA vs vehicle control group)
C+: Carcinogenicity (rodent)
+: Behavior of gene caused by administration of chemical substance, Gene No. 4846 ([1]; mRNA vs vehicle control group) | Behavior of gene caused by administration of chemical substance, Gene No. 4218 ([1]; mRNA vs vehicle control group) | Behavior of gene caused by administration of chemical substance, Gene No. 6182 ([1]; mRNA vs vehicle control group) | Behavior of gene caused by administration of chemical substance, Gene No. 5600 ([1]; mRNA vs vehicle control group) | Behavior of gene caused by administration of chemical substance, Gene No. 533 ([1]; mRNA vs vehicle control group) | Behavior of gene caused by administration of chemical substance, Gene No. 725 ([1]; mRNA vs vehicle control group) | Behavior of gene caused by administration of chemical substance, Gene No. 1163 ([1]; mRNA vs vehicle control group) | Behavior of gene caused by administration of chemical substance, Gene No. 4973 ([1]; mRNA vs vehicle control group) | Behavior of gene caused by administration of chemical substance, Gene No. 4095 ([1]; mRNA vs vehicle control group) | Behavior of gene caused by administration of chemical substance, Gene No. 1334 ([1]; mRNA vs vehicle control group) | Behavior of gene caused by administration of chemical substance, Gene No. 6620 ([1]; mRNA vs vehicle control group) | Behavior of gene caused by administration of chemical substance, Gene No. 6303 ([1]; mRNA vs vehicle control group) | Behavior of gene caused by administration of chemical substance, Gene No. 5878 ([1]; mRNA vs vehicle control group) | Behavior of gene caused by administration of chemical substance, Gene No. 1131 ([1]; mRNA vs vehicle control group) | Behavior of gene caused by administration of chemical substance, Gene No. 1562 ([1]; mRNA vs vehicle control group) | Behavior of gene caused by administration of chemical substance, Gene No. 1741 ([1]; mRNA vs vehicle control group) | Behavior of gene caused by administration of chemical substance, Gene No. 893 ([1]; mRNA vs vehicle control group) | Behavior of gene caused by administration of chemical substance, Gene No. 6026 ([1]; mRNA vs vehicle control group) | Behavior of gene caused by administration of chemical substance, Gene No. 154 ([1]; mRNA vs vehicle control group) | Behavior of gene caused by administration of chemical substance, Gene No. 1993 ([1]; mRNA vs vehicle control group) | Behavior of gene caused by administration of chemical substance, Gene No. 813 ([1]; mRNA vs vehicle control group) | Behavior of gene caused by administration of chemical substance, Gene No. 2494 ([1]; mRNA vs vehicle control group) | Behavior of gene caused by administration of chemical substance, Gene No. 2546 ([1]; mRNA vs vehicle control group) | Behavior of gene caused by administration of chemical substance, Gene No. 3776 ([1]; mRNA vs vehicle control group) | Behavior of gene caused by administration of chemical substance, Gene No. 3929 ([1]; mRNA vs vehicle control group) | Behavior of gene caused by administration of chemical substance, Gene No. 1119 ([1]; mRNA vs vehicle control group) | Behavior of gene caused by administration of chemical substance, Gene No. 6742 ([1]; mRNA vs vehicle control group) | Behavior of gene caused by administration of chemical substance, Gene No. 5634 ([1]; mRNA vs vehicle control group)
Cr−: Liver carcinogenicity (liver)

CC(=O)Oc1ccccc1C(=O)O [TS071, Aspirin]
+: Behavior of gene caused by administration of chemical substance, Gene No. 1131 [1]
−: Behavior of gene caused by administration of chemical substance, Gene No. 4846 [1] | Behavior of gene caused by administration of chemical substance, Gene No. 2026 [1] | Behavior of gene caused by administration of chemical substance, Gene No. 4218 [1] | Behavior of gene caused by administration of chemical substance, Gene No. 6182 [1] | Behavior of gene caused by administration of chemical substance, Gene No. 5600 [1] | Behavior of gene caused by administration of chemical substance, Gene No. 1494 [1] | Behavior of gene caused by administration of chemical substance, Gene No. 2045 [1] | Behavior of gene caused by administration of chemical substance, Gene No. 2203 [1] | Behavior of gene caused by administration of chemical substance, Gene No. 533 [1] | Behavior of gene caused by administration of chemical substance, Gene No. 725 [1] | Behavior of gene caused by administration of chemical substance, Gene No. 1163 [1] | Behavior of gene caused by administration of chemical substance, Gene No. 4973 [1] | Behavior of gene caused by administration of chemical substance, Gene No. 4095 [1] | Behavior of gene caused by administration of chemical substance, Gene No. 1334 [1] | Behavior of gene caused by administration of chemical substance, Gene No. 6620 [1] | Behavior of gene caused by administration of chemical substance, Gene No. 6303 [1] | Behavior of gene caused by administration of chemical substance, Gene No. 5878 [1] | Behavior of gene caused by administration of chemical substance, Gene No. 1562 [1] | Behavior of gene caused by administration of chemical substance, Gene No. 1741 [1] | Behavior of gene caused by administration of chemical substance, Gene No. 893 [1] | Behavior of gene caused by administration of chemical substance, Gene No. 6026 [1] | Behavior of gene caused by administration of chemical substance, Gene No. 154 [1] | Behavior of gene caused by administration of chemical substance, Gene No. 1993 [1] | Behavior of gene caused by administration of chemical substance, Gene No. 813 [1] | Behavior of gene caused by administration of chemical substance, Gene No. 2494 [1] | Behavior of gene caused by administration of chemical substance, Gene No. 2546 [1] | Behavior of gene caused by administration of chemical substance, Gene No. 3776 [1] | Behavior of gene caused by administration of chemical substance, Gene No. 3929 [1] | Behavior of gene caused by administration of chemical substance, Gene No. 1119 [1] | Behavior of gene caused by administration of chemical substance, Gene No. 6742 [1] | Behavior of gene caused by administration of chemical substance, Gene No. 5634 [1] | Behavior of gene caused by administration of chemical substance, Gene No. 5726 [1]
Cr−: Liver carcinogenicity (liver)
C−: Carcinogenicity (rodent)
M−: Mutagenicity by Ames test [2]
